# Assay results published in patent US20220274979A1 (Bayer Pharma Aktiengesellschaft, priority 2018, published 2022).
# Assays:
# [1] = molecular target: T1, hSOS1 (hSOS1-mediated nucleotide exchange of hK-RasG12C) (Homo sapiens, UniProt Q07889); experiment: Biochemical Assay 2: hK-RasG12C activation assay by hSOS1 at high GTP concentration (HTRF nucleotide exchange); details: high GTP (50 μM GTP)
# T1 construct: hSOS1 (amino acid 564-1049); made in house; host or cells: E. coli BL21 (DE3)
# T1 sequence (Q07889 with tags, fused parts or gaps): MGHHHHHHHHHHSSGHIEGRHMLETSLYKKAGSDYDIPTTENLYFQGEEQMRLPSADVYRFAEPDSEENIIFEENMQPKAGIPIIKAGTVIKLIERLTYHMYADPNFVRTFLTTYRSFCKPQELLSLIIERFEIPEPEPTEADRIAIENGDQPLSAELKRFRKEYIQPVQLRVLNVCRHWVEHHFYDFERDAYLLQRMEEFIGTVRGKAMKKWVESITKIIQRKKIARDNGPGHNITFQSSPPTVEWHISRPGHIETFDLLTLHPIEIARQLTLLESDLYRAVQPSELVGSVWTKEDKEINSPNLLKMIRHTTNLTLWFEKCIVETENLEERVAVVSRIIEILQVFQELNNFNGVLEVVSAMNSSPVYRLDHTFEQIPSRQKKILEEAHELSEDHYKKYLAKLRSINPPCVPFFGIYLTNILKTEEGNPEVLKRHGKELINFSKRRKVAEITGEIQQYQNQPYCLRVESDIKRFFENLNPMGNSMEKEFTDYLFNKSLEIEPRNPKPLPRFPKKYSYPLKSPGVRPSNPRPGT
# [2] = molecular target: T2, hK-RasG12C - hSOS1 interaction (Homo sapiens, UniProt Q07889); experiment: Biochemical Assay 1: hK-RasG12C interaction assay with hSOS1 (HTRF); format: binding; details: values expressed as IC50
# T2 construct: hSOS1 (amino acid 564-1049); made in house; host or cells: E. coli BL21 (DE3)
# T2 sequence (Q07889 with tags, fused parts or gaps): T1 sequence (Q07889 with tags, fused parts or gaps)
# How it was run: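 HTRF signal between GST-hK-RasG12C (10 nM working solution, anti-GST-Eu) and His-hSOS1 (20 nM working solution, anti-6His-XL665) was read in HEPES pH 7.4 buffer with 10 mM EDTA, 1 mM DTT and 100 mM KF at 20 °C.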
Compound,IC50 [1],IC50 [2]
"Cc1nc(NC(C)c2ccc(-c3ccccc3CN(C)C)s2)c2cc(OCC3CC3)ncc2n1 (stereo not drawn) [Example 73, 6-(cyclopropylmethoxy)-N-[1-(5-{2-[(dimethylamino)methyl]phenyl}thiophen-2-yl)ethyl]-2-methylpyrido[3,4-d]pyrimidin-4-amine]",129 nM,95 nM
"CCOc1cc2c(NC(C)c3ccc(-c4ccccc4CN(C)C)s3)nc(C)nc2cn1 (stereo not drawn) [Example 63, N-[1-(5-{2-[(dimethylamino)methyl]phenyl}thiophen-2-yl)ethyl]-6-ethoxy-2-methylpyrido[3,4-d]pyrimidin-4-amine]",28 nM,43.6 nM
"CC(=O)NCCNc1cc2c(NC(C)c3ccc(-c4ccccc4CN(C)C)s3)nc(C)nc2cn1 (stereo not drawn) [Example 51, N-{2-[(4-{[1-(5-{2-[(dimethylamino)methyl]phenyl}thiophen-2-yl)ethyl]amino}-2-methylpyrido[3,4-d]pyrimidin-6-yl)amino]ethyl}acetamide]",77.8 nM,32.9 nM
"CSc1cc2c(NC(C)c3ccc(-c4ccccc4CN(C)C)s3)nc(C)nc2cn1 (stereo not drawn) [Example 59, N-[1-(5-{2-[(dimethylamino)methyl]phenyl}thiophen-2-yl)ethyl]-2-methyl-6-(methylsulfanyl)pyrido[3,4-d]pyrimidin-4-amine]",67.9 nM,66.2 nM
"CCOc1cc2c(N[C@H](C)c3ccc(C#N)cc3)nc(C)nc2cn1 [Example 18, 4-{(1R)-1-[(6-ethoxy-2-methylpyrido[3,4-d]pyrimidin-4-yl)amino]ethyl}benzonitrile]",1010 nM,1110 nM
"Cc1nc(NC(C)c2ccc(-c3ccccc3CN(C)C)s2)c2cc(N3CC(NS(=O)(=O)c4ccccc4)C3)ncc2n1 (stereo not drawn) [Example 94, N-[1-(4-{[1-(5-{2-[(dimethylamino)methyl]phenyl}thiophen-2-yl)ethyl]amino}-2-methylpyrido[3,4-d]pyrimidin-6-yl)azetidin-3-yl]benzenesulfonamide]",163 nM,57.2 nM
"COc1cc2c(NC(C)c3ccc(-c4ccccc4CN(C)C)s3)nc(C)nc2cn1 (stereo not drawn) [Example 64, N-[1-(5-{2-[(dimethylamino)methyl]phenyl}thiophen-2-yl)ethyl]-6-methoxy-2-methylpyrido[3,4-d]pyrimidin-4-amine]",62.6 nM,59.5 nM
"Cc1nc(NC(C)c2ccc(-c3ccccc3CN(C)C)s2)c2cc(NCCn3ccnc3)ncc2n1 (stereo not drawn) [Example 56, N4-[1-(5-{2-[(dimethylamino)methyl]phenyl}-2-thienyl)ethyl]-N6-[2-(1H-imidazol-1-yl)ethyl]-2-methylpyrido[3,4-d]pyrimidine-4,6-diamine]",93.9 nM,39.4 nM
"Cc1nc(NC(C)c2ccc(-c3ccccc3CN(C)C)s2)c2cc(N3CC(NC(=O)c4ccccc4)C3)ncc2n1 (stereo not drawn) [Example 88, N-[1-(4-{[1-(5-{2-[(dimethylamino)methyl]phenyl}thiophen-2-yl)ethyl]amino}-2-methylpyrido[3,4-d]pyrimidin-6-yl)azetidin-3-yl]benzamide]",161 nM,59.5 nM
